Reference: patent US20220033397A1, “PHARMACEUTICAL COMPOUNDS AND THEIR USE AS INHIBITORS OF UBIQUITIN SPECIFIC PROTEASE 19 (USP19)” (ALMAC DISCOVERY LIMITED, priority 2018, published 2022)

Molecular target: T1, Full-length USP19 (Homo sapiens, UniProt O94966)
T1 construct: Full-length USP19 was purchased from Boston Biochem (E-576); purchased Boston Biochem E-576
T1 sequence (O94966 1-1318): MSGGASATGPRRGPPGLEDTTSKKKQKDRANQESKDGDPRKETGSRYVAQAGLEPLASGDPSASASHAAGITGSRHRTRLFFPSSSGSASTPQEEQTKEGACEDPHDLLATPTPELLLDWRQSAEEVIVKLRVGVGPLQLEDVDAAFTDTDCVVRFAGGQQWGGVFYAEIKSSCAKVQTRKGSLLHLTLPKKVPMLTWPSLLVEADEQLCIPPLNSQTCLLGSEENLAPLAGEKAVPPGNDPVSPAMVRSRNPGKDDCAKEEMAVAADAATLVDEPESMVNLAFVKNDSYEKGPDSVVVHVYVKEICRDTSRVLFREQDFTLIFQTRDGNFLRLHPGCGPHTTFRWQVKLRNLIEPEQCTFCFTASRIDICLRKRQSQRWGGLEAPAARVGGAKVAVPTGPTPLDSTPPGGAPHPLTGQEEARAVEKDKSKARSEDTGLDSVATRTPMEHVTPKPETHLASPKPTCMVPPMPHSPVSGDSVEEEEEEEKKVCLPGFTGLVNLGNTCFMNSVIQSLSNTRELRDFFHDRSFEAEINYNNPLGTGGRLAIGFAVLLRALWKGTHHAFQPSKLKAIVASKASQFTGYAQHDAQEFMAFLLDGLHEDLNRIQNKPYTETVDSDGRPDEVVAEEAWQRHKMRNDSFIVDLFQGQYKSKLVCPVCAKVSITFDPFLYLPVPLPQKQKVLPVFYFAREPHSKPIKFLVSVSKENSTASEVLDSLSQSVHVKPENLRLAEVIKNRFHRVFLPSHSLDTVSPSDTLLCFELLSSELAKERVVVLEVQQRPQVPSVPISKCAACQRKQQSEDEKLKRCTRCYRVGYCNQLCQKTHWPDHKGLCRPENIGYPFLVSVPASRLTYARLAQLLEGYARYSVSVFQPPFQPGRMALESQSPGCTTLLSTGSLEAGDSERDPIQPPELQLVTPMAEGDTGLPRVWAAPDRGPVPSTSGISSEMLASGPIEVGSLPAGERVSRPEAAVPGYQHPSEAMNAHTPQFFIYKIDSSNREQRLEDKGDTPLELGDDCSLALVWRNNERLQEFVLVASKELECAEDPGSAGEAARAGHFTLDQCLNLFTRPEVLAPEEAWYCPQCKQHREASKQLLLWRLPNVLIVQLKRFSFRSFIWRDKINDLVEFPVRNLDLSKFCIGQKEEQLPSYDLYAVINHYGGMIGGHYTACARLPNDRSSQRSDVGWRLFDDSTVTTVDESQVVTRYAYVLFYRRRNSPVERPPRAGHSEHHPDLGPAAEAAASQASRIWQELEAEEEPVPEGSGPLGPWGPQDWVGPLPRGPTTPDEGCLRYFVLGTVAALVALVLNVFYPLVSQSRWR
Assay: USP19 fluorescence polarisation (FP) homogeneous assay with Ubiquitin-Lys-TAMRA substrate
Assay type: biochemical
Conditions: 2.5 nM USP19, 30 min pre-incubation, average of at least two duplicate experiments
Outline: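 Full-length USP19 preincubated 30 min at RT with inhibitor (200 μM to 2 μM series, 8–18 points) before adding 500 nM Ubiquitin-Lys-TAMRA substrate.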

Row | IC50 [µM] | SMILES
1 | < 0.5 | C[C@H](CC1CCCCC1)C(=O)N1CCC(O)(Cn2cnc3c(cnn3-c3ccccc3)c2=O)C2(CCCC2)C1 (stereo partly drawn) [Example 176, 5-((7-((R)-3-Cyclohexyl-2-methylpropanoyl)-10-hydroxy-7-azaspiro[4.5]decan-10-yl)methyl)-1-phenyl-1,5-dihydro-4H-pyrazolo[3,4-d]pyrimidin-4-one]
2 | 5 to 50 | C[C@H](CC(F)(F)F)C(=O)N1CCC(O)(Cn2cnc3c(cnn3-c3ccccc3)c2=O)C2(CCCC2)C1 (stereo partly drawn) [Example 177, 5-((10-Hydroxy-7-((R)-4,4,4-trifluoro-2-methylbutanoyl)-7-azaspiro[4.5]decan-10-yl)methyl)-1-phenyl-1,5-dihydro-4H-pyrazolo[3,4-d]pyrimidin-4-one]
3 | < 0.5 | O=C(N1CCC(O)(Cn2cnc3c(cnn3-c3ccccc3)c2=O)C2(CCCC2)C1)N1CCNC[C@H]1c1ccccc1 (stereo partly drawn) [Example 178, 5-((10-Hydroxy-7-((R)-2-phenylpiperazine-1-carbonyl)-7-azaspiro[4.5]decan-10-yl)methyl)-1-phenyl-1,5-dihydro-4H-pyrazolo[3,4-d]pyrimidin-4-one]
4 | 5 to 50 | Cn1cc2ncn(CC3(O)CCN(C(=O)N4CCNC[C@H]4c4ccccc4)CC34CCCC4)c(=O)c2n1 (stereo partly drawn) [Example 179, 6-((10-Hydroxy-7-((R)-2-phenylpiperazine-1-carbonyl)-7-azaspiro[4.5]decan-10-yl)methyl)-2-methyl-2,6-dihydro-7H-pyrazolo[4,3-d]pyrimidin-7-one]
5 | 5 to 50 | C[C@H](CC(F)(F)F)C(=O)N1CCC(O)(Cn2cnc3c(cnn3C)c2=O)C2(CCCC2)C1 (stereo partly drawn) [Example 180, 5-((10-Hydroxy-7-((R)-4,4,4-trifluoro-2-methylbutanoyl)-7-azaspiro[4.5]decan-10-yl)methyl)-1-methyl-1,5-dihydro-4H-pyrazolo[3,4-d]pyrimidin-4-one]
6 | 5 to 50 | C[C@H](CC(F)(F)F)C(=O)N1CCC(O)(Cn2cnc3c(cnn3C3CC3)c2=O)C2(CCCC2)C1 (stereo partly drawn) [Example 181, 1-Cyclopropyl-5-((10-hydroxy-7-((R)-4,4,4-trifluoro-2-methylbutanoyl)-7-azaspiro[4.5]decan-10-yl)methyl)-1,5-dihydro-4H-pyrazolo[3,4-d]pyrimidin-4-one]
7 | < 0.5 | Cn1ncc2c(=O)n(CC3(O)CCN(C(=O)N4CCNC[C@H]4c4ccccc4)CC34CCCC4)cnc21 (stereo partly drawn) [Example 182, 5-((10-Hydroxy-7-((R)-2-phenylpiperazine-1-carbonyl)-7-azaspiro[4.5]decan-10-yl)methyl)-1-methyl-1,5-dihydro-4H-pyrazolo[3,4-d]pyrimidin-4-one]

The remaining lines, values behind:

Row | SMILES | IC50 [µM]
8 | CSc1ncc2c(=O)n(CC3(O)CCN(C(=O)[C@H](C)CC(F)(F)F)CC34CCCC4)cnc2n1 (stereo partly drawn) [Example 161, 3-((10-Hydroxy-7-((R)-4,4,4-trifluoro-2-methylbutanoyl)-7-azaspiro[4.5]decan-10-yl)methyl)-7-(methylthio)pyrimido[4,5-d]pyrimidin-4(3H)-one] | 0.5 to 5
9 | C[C@H](CC(F)(F)F)C(=O)N1CCC(O)(Cn2cnc3nc(N4CCOCC4)ncc3c2=O)C2(CCCC2)C1 (stereo partly drawn) [Example 162, 3-((10-Hydroxy-7-((R)-4,4,4-trifluoro-2-methylbutanoyl)-7-azaspiro[4.5]decan-10-yl)methyl)-7-morpholinopyrimido[4,5-d]pyrimidin-4(3H)-one] | 0.5 to 5
10 | C[C@H](CC(F)(F)F)C(=O)N1CCC(O)(Cn2cnc3nc(N4CCN(C)CC4)ncc3c2=O)C2(CCCC2)C1 (stereo partly drawn) [Example 163, 3-((10-Hydroxy-7-((R)-4,44-trifluoro-2-methylbutanoyl)-7-azaspiro[4.5]decan-10-yl)methyl)-7-(4-methylpiperazin-1-yl)pyrimido[4,5-d]pyrimidin-4(3H)-one] | 0.5 to 5
11 | O=C(N1CCC(O)(Cn2cnc3ccc(F)cc3c2=O)C2(CCCC2)C1)N1CCOC[C@H]1c1ccccc1 (stereo partly drawn) [Example 164, 6-Fluoro-3-((10-Hydroxy-7-((R)-3-phenylmorpholine-4-carbonyl)-7-azaspiro[4.5]decan-10-yl)methyl)quinazolin-4(3H)-one] | < 0.5
12 | O=C(N1CCC(O)(Cn2cnc3cc(F)c(F)cc3c2=O)C2(CCCC2)C1)N1CCOC[C@H]1c1ccccc1 (stereo partly drawn) [Example 165, 6,7-Difluoro-3-((10-hydroxy-7-((R)-3-phenylmorpholine-4-carbonyl)-7-azaspiro[4.5]decan-10-yl)methyl)quinazolin-4(3H)-one] | < 0.5
13 | O=C(N1CCC(O)(Cn2ccc3ccncc3c2=O)C2(CCCC2)C1)N1CCOC[C@H]1c1ccccc1 (stereo partly drawn) [Example 166, 2-((10-Hydroxy-7-((R)-3-phenylmorpholine-4-carbonyl)-7-azaspiro[4.5]decan-10-yl)methyl)-2,7-naphthyridin-1(2H)-one] | 0.5 to 5
14 | O=C(N1CCC(O)(Cn2cnc3c(cnn3Cc3ccccc3)c2=O)C2(CCCC2)C1)N1CCOC[C@H]1c1ccccc1 (stereo partly drawn) [Example 167, 1-Benzyl-5-((10-hydroxy-7-((R)-3-phenylmorpholine-4-carbonyl)-7-azaspiro[4.5]decan-10-yl)methyl)-1,5-dihydro-4H-pyrazolo[3,4-d]pyrimidin-4-one] | 0.5 to 5
15 | C[C@H](CC(F)(F)F)C(=O)N1CCC(O)(Cn2cnc3c(cnn3Cc3ccccc3)c2=O)C2(CCCC2)C1 (stereo partly drawn) [Example 168, 1-Benzyl-5-((10-hydroxy-7-((R)-4,4,4-trifluoro-2-methylbutanoyl)-7-azaspiro[4.5]decan-10-yl)methyl)-1,5-dihydro-4H-pyrazolo[3,4-d]pyrimidin-4-one] | 5 to 50
16 | O=C(N1CCC(O)(Cn2cnc3ccc(F)cc3c2=O)C2(CCCC2)C1)N1CCNC[C@H]1c1ccccc1 (stereo partly drawn) [Example 169, 6-Fluoro-3-((10-hydroxy-7-((R)-2-phenylpiperazine-1-carbonyl)-7-azaspiro[4.5]decan-10-yl)methyl)quinazolin-4(3H)-one] | < 0.5
17 | O=C(N1CCC(O)(Cn2cnc3cc(F)c(F)cc3c2=O)C2(CCCC2)C1)N1CCNC[C@H]1c1ccccc1 (stereo partly drawn) [Example 170, 6,7-Difluoro-3-((10-hydroxy-7-((R)-2-phenylpiperazine-1-carbonyl)-7-azaspiro[4.5]decan-10-yl)methyl)quinazolin-4(3H)-one] | < 0.5
18 | O=C(N1CCC(O)(Cn2ccc3ccncc3c2=O)C2(CCCC2)C1)N1CCNC[C@H]1c1ccccc1 (stereo partly drawn) [Example 171, 2-((10-Hydroxy-7-((R)-2-phenylpiperazine-1-carbonyl)-7-azaspiro[4.5]decan-10-yl)methyl)-2,7-naphthyridin-1(2H)-one] | < 0.5
19 | O=C(N1CCC(O)(Cn2cnc3c(cnn3Cc3ccccc3)c2=O)C2(CCCC2)C1)N1CCNC[C@H]1c1ccccc1 (stereo partly drawn) [Example 172, 1-Benzyl-5-((10-hydroxy-7-((R)-2-phenylpiperazine-1-carbonyl)-7-azaspiro[4.5]decan-10-yl)methyl)-1,5-dihydro-4H-pyrazolo[3,4-d]pyrimidin-4-one] | < 0.5
20 | C[C@H](CC1CCCCC1)C(=O)N1CCC(O)(Cn2cnc3cn(C)nc3c2=O)C2(CCCC2)C1 (stereo partly drawn) [Example 173, 6-((7-((R)-3-Cyclohexyl-2-methylpropanoyl)-10-hydroxy-7-azaspiro[4.5]decan-10-yl)methyl)-2-methyl-2,6-dihydro-7H-pyrazolo[4,3-d]pyrimidin-7-one] | 5 to 50
21 | C[C@H](CC1CCCCC1)C(=O)N1CCC(O)(Cn2c(=O)c3cncnc3n2C)C2(CCCC2)C1 (stereo partly drawn) [Example 174, 2-((7-((R)-3-Cyclohexyl-2-methylpropanoyl)-10-hydroxy-7-azaspiro[4.5]decan-10-yl)methyl)-1-methyl-1,2-dihydro-3H-pyrazolo[3,4-d]pyrimidin-3-one] | 5 to 50
22 | Cn1c2ncncc2c(=O)n1CC1(O)CCN(C(=O)N2CCNC[C@H]2c2ccccc2)CC12CCCC2 (stereo partly drawn) [Example 175, 2-((10-Hydroxy-7-((R)-2-phenylpiperazine-1-carbonyl)-7-azaspiro[4.5]decan-10-yl)methyl)-1-methyl-1,2-dihydro-3H-pyrazolo[3,4-d]pyrimidin-3-one] | 5 to 50
